The results in this text go back to patent US20200071316A1, “ACTIVATORS OF THE RETINOIC ACID INDUCIBLE GENE "RIG-I" PATHWAY AND METHODS OF USE THEREOF” (Kineta Immuno-Oncology LLC, priority 2018, published 2020).

Marks after values point to notes of the source that are not given here.

Experiment [1] has as its system IRF3 signaling pathway (IRF-inducible ISG54 promotor) in THP1-Lucia ISG cells. Description: THP1-Lucia ISG reporter assay: induction of IRF3-dependent luciferase activity. The experiment is classed as cell-based. As to conditions: Homo sapiens, PMA-differentiated cells, 18 h after stimulation, read-out: THP1 ISG: fold increase of IRF3-dependent luciferase activity over background; for fold induction at 10 µM: 10 μM compound; for fold induction at 20 µM: 20 μM compound (*); for fold induction at 5 µM: 5 μM compound (**). The protocol: The compounds were evaluated in the THP1-Lucia™ ISG (interferon stimulated genes) reporter assay to determine if the compounds activate the IRF3 signaling pathway. The THP1-Lucia™ cells (InvivoGen) express the secreted luciferase (Lucia) reporter gene under the control of an IRF-inducible promotor. The reporter cell line was developed from human monocytic leukemia THP-1 cells.
(§1) The promotor was comprised of five IFN-stimulated response elements (ISRE) fused to an ISG54 minimal promotor which is unresponsive to NF-kB or AP-1 pathways. […] The IRF3-deficient THP1-Lucia™ ISG IRF3 −/− reporter cell line was generated by CRISPR technology from the parent THP1-Lucia™ ISG reporter cell line.
(§2) 5 THP1-Lucia™ ISG cells and IRF3-deficient THP1-Lucia™ ISG IRF3 −/− cells were differentiated with PMA (100 ng/ml) and stimulated with compounds at the indicated concentrations (5 to 20 μM), positive control, or not treated (background). Luciferase secretion was quantified using the QUANTI-Luc luciferase assay system (InvivoGen) 18 h after stimulation. Data are shown as fold increase luciferase activity over background in Table 7 and represent the IRF3-dependent ISG54 promotor activity by the THP1-Lucia™ ISG cells in response to compounds. […] The fold increase of compounds (10 μM, *20 μM, **5 μM) induced IRF3 dependent luciferase activity is indicated as follows: “−” indicates less than 2.4 fold increase; “+” indicates a 2.4-4.9 fold increase; “++” indicates a 5-9.9 fold increase; “+++” indicates a 10-19 fold increase; “++++” indicates a 20-39 fold increase; “+++++” indicates greater than or equal to 40 fold increase.

Experiment [2] has as its system THP1-Lucia ISG IRF3 −/− cells. Description: IRF3-deficient THP1-Lucia ISG IRF3 −/− reporter assay (counter-screen). The experiment is classed as cell-based. The note with it: Homo sapiens, 18 h after stimulation, read-out: THP1 ISG IRF3 −/−: fold increase of luciferase activity over background; for fold induction at 10 µM: 10 μM compound; for fold induction at 5 µM: 5 μM compound (**). On the procedure: as §1, §2

Experiment [3] deals with CXCL10 secretion by CT26 cells. Description: RIG-I dependent CXCL10 secretion by CT26 colon carcinoma cells (ELISA). The note with it: 24 h. The experiment is classed as cell-based, murine. The protocol:
(§3) The CT26 murine colon carcinoma cell line (ATCC) was used to evaluate the induction of CXCL10 secretion. CXCL10 is an important chemokine in tumor immune biology that recruits tumor-specific T cells to the tumor. To confirm that compound-mediated CXCL10 production was RIG-I specific, RIG-I deficient CT2-RIG-1−/− cells were generated by Kineta using CRISPR technology.
(§4) CT26 cells were seeded at a density of 1×10^4 cells per well on a 96-well tissue culture plate in 100 μL of cell culture and cells were incubated at 37° C. and 5% CO2 for 24 hr. Next, CT26 cells were treated with compounds at the indicated concentrations. CXCL10 was quantified by ELISA from supernatants taken 24 h after compound stimulation by use of the CXCL10 DuoSet ELISA kit (Cat # DY466, R&D, Minneapolis, Minn., USA) according to the manufacturer's instructions.
(§5) CXCL10 secretion by CT26 cells in response to compounds (in an amount of 5 to 20 μM) of the present disclosure is shown in Table 8. The compound-induced CXCL10 production was RIG-I dependent, since none of the compounds mediated CXCL10 secretion in RIG-I deficient CT26 RIG-1−/− cells. The compounds (10 μM, *20 μM, **5 μM) are indicated in the table as follows: “−” indicates less than 100 pg/mL; “+” indicates 100-199 pg/mL; “++” indicates 200-399 pg/mL; “+++” indicates 400-799 pg/mL; “++++” indicates 800 to 1599 pg/mL; “+++++” indicates greater than or equal to 1600 pg/ml.
A general note: In an ELISA, binding on a coated surface is turned into a signal by an enzyme label.

Experiment [4] deals with RIG-I deficient CT26 RIG-1−/− cells. The experiment in a line: CXCL10 secretion in RIG-I deficient CT26 RIG-1−/− cells (ELISA). As to conditions: 24 h. The experiment is classed as cell-based, murine. On the procedure:
as §3, §4, §5

With `O=C(Nc1nc2cccc(C(F)(F)F)c2s1)c1ccc2ccccc2c1` [Example 11, N-[7-(trifluoromethyl)-1,3-benzothiazol-2-yl]naphthalene-2-carboxamide], the results for the fold induction at 10 µM in experiment [1] and in experiment [2] were 10 to 19 and less than 2.4, respectively. For the same compound, the “CXCL10 secretion by CT26 cells” value in experiment [3] (10 μM compound) was “++ (“++” indicates 200-399 pg/mL)”. For the same compound, in experiment [4] (10 μM compound), the “CXCL10 secretion by CT26 RIG-I −/− cells” value was “− (“−” indicates less than 100 pg/mL)”.

For the compound `O=C(Cc1ccc2nc(NC(=O)c3ccc4ccccc4c3)sc2c1)NC1CC1` [Example 12, N-{6-[(cyclopropyl-carbamoyl)methyl]-1,3-benzothiazol-2-yl}naphthalene-2-carboxamide], the figures for the fold induction at 20 µM in experiment [1] and in experiment [2] (20 μM compound (*)) were 2.4 to 4.9 and less than 2.4, respectively. The “CXCL10 secretion by CT26 cells” value in experiment [3] (10 μM compound) is recorded as “+++ (“+++” indicates 400-799 pg/mL)”. Moreover, the “CXCL10 secretion by CT26 RIG-I −/− cells” value in experiment [4] (10 μM compound) was “− (“−” indicates less than 100 pg/mL)”.

`O=C(Nc1nc2ccc(C(=O)Nc3c(Cl)cccc3Cl)cc2s1)c1ccc2ccccc2c1` [Example 13, N-(2,6-dichlorophenyl)-2-(naphthalene-2-amido)-1,3-benzothiazole-6-carboxaraide]: the fold induction at 10 µM in experiment [1] is 20 to 39; in experiment [2], less than 2.4. Moreover, the “CXCL10 secretion by CT26 cells” value in experiment [3] (10 μM compound) is reported as “+++++ (“+++++” indicates greater than or equal to 1600 pg/ml)”. In addition, in experiment [4] (10 μM compound), the “CXCL10 secretion by CT26 RIG-I −/− cells” value was “− (“−” indicates less than 100 pg/mL)”.

With `O=C(Nc1ccccn1)c1ccc2nc(NC(=O)c3ccc4ccccc4c3)sc2c1` [Example 14, 2-(naphthalene-2-amido)-N-(pyridin-2-yl)-1,3-benzo-thiazole-6-carboxamide], the fold induction at 10 µM in experiment [1] was 20 to 39; in experiment [2], less than 2.4. The “CXCL10 secretion by CT26 cells” value in experiment [3] (10 μM compound) is given as “++++ (“++++” indicates 800 to 1599 pg/mL)”. In experiment [4] (10 μM compound), the “CXCL10 secretion by CT26 RIG-I −/− cells” value was “− (“−” indicates less than 100 pg/mL)”.

In the case of `O=C(Nc1nc2ccc(C(=O)Nc3c(Cl)cccc3Cl)cc2s1)c1ccc2ncccc2c1` [Example 15, N-{6-[(2,6-dichlorophenyl)carbamoyl]-1,3-benzothiazol-2-yl}quinoline-6-carboxamide], the fold induction at 10 µM in experiment [1] is 20 to 39; in experiment [2] it was less than 2.4. In addition, the “CXCL10 secretion by CT26 cells” value in experiment [3] (10 μM compound) is listed as “++++ (“++++” indicates 800 to 1599 pg/mL)”. In addition, the “CXCL10 secretion by CT26 RIG-I −/− cells” value in experiment [4] (10 μM compound) is listed as “− (“−” indicates less than 100 pg/mL)”.

For the compound `O=C(Nc1nc2ccc(S(=O)(=O)N3CCOCC3)cc2s1)c1cc2ccccc2cc1OCCN1CCOCC1` [Example 16, 3-[2-(morpholin-4-yl)ethoxy]-N-[6-(morpholine-4-sulfonyl)-1,3-benzothiazol-2-yl]naphthalene-2-carboxamide], the fold induction at 10 µM was 20 to 39 in experiment [1] and less than 2.4 in experiment [2]. The “CXCL10 secretion by CT26 cells” value in experiment [3] (10 μM compound) is “++++ (“++++” indicates 800 to 1599 pg/mL)”. In experiment [4] (10 μM compound), the “CXCL10 secretion by CT26 RIG-I −/− cells” value is on record as “− (“−” indicates less than 100 pg/mL)”.

On to `O=C(Nc1nc2ccc(S(=O)(=O)N3CCOCC3)cc2s1)c1cc2ccccc2cc1OCCCCN1CCOCC1` [Example 17, 3-[4-(morpholin-4-yl)butoxy]-N-[6-(morpholine-4-sulfonyl)-1,3-benzothiazol-2-yl]naphthalene-2-carboxamide], for which the fold induction at 10 µM in experiment [1] is 10 to 19; in experiment [2], less than 2.4. Further, in experiment [3] (10 μM compound), the “CXCL10 secretion by CT26 cells” value is on record as “+++ (“+++” indicates 400-799 pg/mL)”. The “CXCL10 secretion by CT26 RIG-I −/− cells” value in experiment [4] (10 μM compound) is on record as “− (“−” indicates less than 100 pg/mL)”.

On to `O=C(Nc1nc2ccc(Cc3ccccc3)cc2s1)c1cc2ccccc2cc1OCCN1CCOCC1` [Example 18, N-(6-benzyl-1,3-benzothiazol-2-yl)-3-[2-(morpholin-4-yl)ethoxy]naphthalene-2-carboxamide], for which the values for the fold induction at 10 µM in experiment [1] and in experiment [2] were 2.4 to 4.9 and less than 2.4, respectively. Moreover, the “CXCL10 secretion by CT26 cells” value in experiment [3] (10 μM compound) is recorded as “+ (“+” indicates 100-199 pg/mL)”. Besides, the “CXCL10 secretion by CT26 RIG-I −/− cells” value in experiment [4] (10 μM compound) is reported as “− (“−” indicates less than 100 pg/mL)”.

With `O=C(Nc1nc2ccc([N+](=O)[O-])cc2s1)c1cc2ccccc2cc1OCCN1CCOCC1` [Example 20, 3-[2-(morpholin-4-yl)ethoxy]-N-(6-nitro-1,3-benzothiazol-2-yl)naphthalene-2-carboxamide], the figures for the fold induction at 10 µM in experiment [1] and in experiment [2] were 10 to 19 and less than 2.4, respectively. For the same compound, the “CXCL10 secretion by CT26 cells” value in experiment [3] (5 μM compound (**)) is “+** (“+” indicates 100-199 pg/mL)”. Moreover, the “CXCL10 secretion by CT26 RIG-I −/− cells” value in experiment [4] (5 μM compound (**)) was “−** (“−” indicates less than 100 pg/mL)”.

For the compound `O=C(Nc1nc2ccc(NC(=O)C3CCCCC3)cc2s1)c1cc2ccccc2cc1OCCN1CCOCC1` [Example 21, N-(6-cyclohexaneamido-1,3-benzothiazol-2-yl)-3-[2-(morpholin-4-yl)ethoxy]naphthalene-2-carboxamide], the fold induction at 10 µM was 5 to 9.9 in experiment [1] and less than 2.4 in experiment [2]. Further, the “CXCL10 secretion by CT26 cells” value in experiment [3] (5 μM compound (**)) is given as “+** (“+” indicates 100-199 pg/mL)”. In addition, the “CXCL10 secretion by CT26 RIG-I −/− cells” value in experiment [4] (5 μM compound (**)) is on record as “−** (“−” indicates less than 100 pg/mL)”.

With `O=C(Nc1nc2ccc(NC(=O)C3CCCCC3)cc2s1)c1cc2ccccc2cc1OCCCCN1CCOCC1` [Example 22, N-(6-cyclohexaneamido-1,3-benzothiazol-2-yl)-3-[4-(morpholin-4-yl)butoxy]naphthalene-2-carboxamide], the fold induction at 5 µM was 2.4 to 4.9 in experiment [1] and less than 2.4 in experiment [2]. Besides, the “CXCL10 secretion by CT26 cells” value in experiment [3] (5 μM compound (**)) is “+** (“+” indicates 100-199 pg/mL)”. Moreover, the “CXCL10 secretion by CT26 RIG-I −/− cells” value in experiment [4] (5 μM compound (**)) was “−** (“−” indicates less than 100 pg/mL)”.

As for `O=C(Nc1nc2ccc([N+](=O)[O-])cc2s1)c1cc2ccccc2cc1OCCCCN1CCOCC1` [Example 23, 3-[4-(morpholin-4-yl)butoxy]-N-(6-nitro-1,3-benzothiazol-2-yl)naphthalene-2-carboxamide], the fold induction at 5 µM is 5 to 9.9 in experiment [1] and less than 2.4 in experiment [2]. Besides, the “CXCL10 secretion by CT26 cells” value in experiment [3] (5 μM compound (**)) is on record as “++++** (“++++” indicates 800 to 1599 pg/mL)”. In experiment [4] (5 μM compound (**)), the “CXCL10 secretion by CT26 RIG-I −/− cells” value is “−** (“−” indicates less than 100 pg/mL)”.

For `N#Cc1ccc2nc(NC(=O)c3cc4ccccc4cc3OCCN3CCOCC3)sc2c1` [Example 24, N-(6-cyano-1,3-benzothiazol-2-yl)-3-[2-(morpholin-4-yl)ethoxy]naphthalene-2-carboxamide], the fold induction at 10 µM in experiment [1] was 5 to 9.9; in experiment [2], less than 2.4. Further, the “CXCL10 secretion by CT26 cells” value in experiment [3] (10 μM compound) was “− (“−” indicates less than 100 pg/mL)”. Moreover, the “CXCL10 secretion by CT26 RIG-I −/− cells” value in experiment [4] (10 μM compound) was “− (“−” indicates less than 100 pg/mL)”.

For the compound `N#Cc1ccc2nc(NC(=O)c3cc4ccccc4cc3OCCCCN3CCOCC3)sc2c1` [Example 25, N-(6-cyano-1,3-benzothiazol-2-yl)-3-[4-(morpholin-4-yl)butoxy]naphthalene-2-carboxamide], the fold induction at 20 µM in experiment [1] was in the range of 2.4 to 4.9. Further, in experiment [2], the fold induction at 5 µM is less than 2.4. For the same compound, the “CXCL10 secretion by CT26 cells” value in experiment [3] (20 μM compound (*)) is given as “+* (“+” indicates 100-199 pg/mL)”. Moreover, the “CXCL10 secretion by CT26 RIG-I −/− cells” value in experiment [4] (20 μM compound (*)) is “−* (“−” indicates less than 100 pg/mL)”.
